Results on 10 compounds are retold here after paper PMC11642940, “A New Demand for Improved Selectivity and Potency of Cyanine Dyes as Antiproliferative Agents Against Colorectal Cancer Cells” (Molecules, 2024).

Structures are written as SMILES. Read-outs that look alike come from different tables or passages of the source.

The nature of data set [1]: MTT cell viability assay, NHDF. In kind it is cell-based, human. As to conditions: human, 10 µM, 72 h, mean ± SD, read-out: cell viability percentage in relation to control, NHDF. Background: Tetrazolium dyes change colour on reduction, which living cells bring about.
Procedure: (§4) The cell lines used in this study (Caco-2, MCF-7, PC-3, and NHDF) were obtained from the American Type Culture Collection (ATCC, Manassas, VA, USA) and cultured in 75 cm^2 culture flasks at 37 °C in a humidified atmosphere with 5% CO2 in a LEEC Culture Safe Precision CO2 Incubator. PC-3 cells were grown in Roswell Park Memorial Institute (RPMI) medium supplemented with 10% of inactivated Fetal Bovine Serum (FBS) and 1% of an antibiotic mixture (Sp; 10,000 U/mL of penicillin G and 100 mg/mL of streptomycin). MCF-7 and Caco-2 cell lines were both cultured using Dulbecco’s Modified Eagle Medium (DMEM). However, the medium for MCF-7 cells was complemented with 10% of inactivated FBS and 1% of antibiotic/antimycotic mixture (Ab; 10,000 U/mL of penicillin G, 100 mg/mL of streptomycin and 25 µg/mL of amphotericin B), and the medium for Caco-2 cells was supplemented with 20% of inactivated FBS and 1% of Sp. Finally, RPMI medium supplemented with 10% FBS, 2 mM of L-glutamine, 10 mM of 4-(2-hydroxyethyl)-1-piperazineethanesulfonic acid (HEPES), 1 mM of sodium pyruvate, and 1% of Ab was used to culture NHDF cells. The culture media were renewed every two to three days until near confluence was achieved. Then, cells were detached using a solution of 0.125 g/L of trypsin and 0.02 g/L of ethylenediaminetetracetic acid (EDTA), counted by the trypan blue method, resuspended, and adequately seeded to continue the culture in 75 cm^2 flasks or for the experiments described below. All manipulations were performed in a Labculture Class II A2 Biological Safety Cabinet.
Data set [2] deals with normal human dermal fibroblasts (NHDF). As to the kind of experiment: MTT cell viability assay, NHDF. Type of data set: cell-based. As to conditions: Homo sapiens, NHDF, read-out: IC50 NHDF.
Procedure: as §4
A short description of data set [3]: MTT cell viability assay, Caco-2. The conditions noted are these: human. How it is done: (§1) To evaluate the anticancer potential of monomethine cyanine dyes 1–12, a cell proliferation study was conducted using the 3-(4,5-dimethylthiazol-2-yl)-2,5-diphenyltetrazolium bromide (MTT) assay. For this preliminary evaluation, a concentration of 10 µM for each dye was tested, with the well-established chemotherapy agent 5-fluorouracil (5-FU) serving as a positive control. The assay included normal human dermal fibroblasts (NHDF) as non-tumor cells, alongside tumor cell lines from colorectal (Caco-2), prostate (PC-3), and breast (MCF-7) adenocarcinomas.
(§2) The cell lines used in this study (Caco-2, MCF-7, PC-3, and NHDF) were obtained from the American Type Culture Collection (ATCC, Manassas, VA, USA) and cultured in 75 cm^2 culture flasks at 37 °C in a humidified atmosphere with 5% CO2 in a LEEC Culture Safe Precision CO2 Incubator. PC-3 cells were grown in Roswell Park Memorial Institute (RPMI) medium supplemented with 10% of inactivated Fetal Bovine Serum (FBS) and 1% of an antibiotic mixture (Sp; 10,000 U/mL of penicillin G and […] of streptomycin). MCF-7 and Caco-2 cell lines were both cultured using Dulbecco’s Modified Eagle Medium (DMEM). However, the medium for MCF-7 cells was complemented with 10% of inactivated FBS and 1% of antibiotic/antimycotic mixture (Ab; 10,000 U/mL of penicillin G, […] of streptomycin and 25 µg/mL of amphotericin B), and the medium for Caco-2 cells was supplemented with 20% of inactivated FBS and 1% of Sp. Finally, RPMI medium supplemented with 10% FBS, 2 mM of L-glutamine, 10 mM of 4-(2-hydroxyethyl)-1-piperazineethanesulfonic acid (HEPES), 1 mM of sodium pyruvate, and 1% of Ab was used to culture NHDF cells. The culture media were renewed every two to three days until near confluence was achieved. Then, cells were detached using a solution of 0.125 g/L of trypsin and 0.02 g/L of ethylenediaminetetracetic acid (EDTA), counted by the trypan blue method, resuspended, and adequately seeded to continue the culture in 75 cm^2 flasks or for the experiments described below. All manipulations were performed in a Labculture Class II A2 Biological Safety Cabinet.
(§3) After trypsinization, cells were seeded in 96-well culture plates (100 µL; 2 × 10^4 cells/mL), and after 48 h (for adherence), they were incubated with the compounds under study in the absence of light for a duration of 72 h. Then, the medium was removed, and fresh incomplete culture medium (without FBS and Ab or Sp) and MTT solution [5 mg/mL in phosphate buffer saline (PBS)] were added to each well, followed by 4 h of incubation. After this, the medium containing MTT was removed and DMSO was added to dissolve formazan crystals. The absorbance of each well at 570 nm was determined using a microplate spectrophotometer Bio-Rad (Hercules, CA, USA) xMark. Untreated cells were considered the negative control, and 5-FU, a clinically used drug, was considered the positive control. For data analysis, the relative cell proliferation relative to the negative control cells was calculated. For each cell viability study, at least two independent assays in quadruplicate were performed. Increasing concentrations of the compounds between 0.001 and 100 μM were used to determine the IC50 values.

In data set [4] the test system is Caco-2 colorectal adenocarcinoma cells. As to the kind of experiment: MTT cell viability assay, Caco-2. As to conditions: Homo sapiens, Caco-2, 72 h; for IC50: read-out: IC50 Caco-2; for viability at 10 µM: read-out: cell viability percentage in relation to control, Caco-2. How it is done: as §1, §2, §3
Data set [5] has as its system PC-3 prostate adenocarcinoma cells. The data set can be described thus: MTT cell viability assay, PC-3. The conditions noted are these: for viability at 10 µM: read-out: cell viability percentage in relation to control, PC-3; for SI PC-3 (selectivity index versus NHDF): PC-3 versus NHDF. How it is done: as §1, §2, §3
The test system of data set [6] is MCF-7 breast adenocarcinoma cells. The data set can be described thus: MTT cell viability assay, MCF-7. The conditions noted are these: for IC50 / viability at 10 µM: Homo sapiens, MCF7, 72 h; for IC50: read-out: IC50 MCF-7, MCF-7, 72 h incubation, MTT; for viability at 10 µM: read-out: cell viability percentage in relation to control, MCF-7; for SI MCF-7 (selectivity index versus NHDF): MCF-7 versus NHDF, 72 h. How it is done:
as §1, §2, §3

Setting [7] is: normal human dermal fibroblasts (NHDF).
The mark [8] stands for this setting: 72 h incubation, MTT, absence of light.
[9] abbreviates: Caco-2, SI Caco-2 (selectivity index, cancer versus non-cancer cell line NHDF), Caco-2 versus NHDF, 72 h.
The mark [10] stands for this setting: Homo sapiens, 72 h, read-out: IC50 PC-3, PC-3, 72 h incubation, MTT.

For `CCN1C(=Cc2sc3cc(N)ccc3[n+]2CC)Sc2ccccc21.[I-]` [Dye 11, 6-Amino-3-ethyl-2-((3-ethylbenzo[d]thiazol-2(3H)-ylidene)methyl)benzo[d]thiazol-3-ium iodide], in data set [1] (setting [7]), the viability (commonly a per cent measure of how many cells are alive, often set against a control) at 72 h, 10 µM worked out at 16.1 ± 2.46%. For the same compound, the concentration for half-maximal inhibition (IC50) (commonly the concentration needed to halve the response being measured) in data set [2] (setting [8]) worked out at 3000 nM; in data set [4], 170 nM; in data set [5] (setting [10]) it was 2100 nM; in data set [6], 330 nM. For the same compound, the selectivity ratio at 72 h in data set [3] (setting [9]) was 17.1. Further, the viability at 10 µM in data set [4] is 9.6 ± 1.47%; in data set [5] (Homo sapiens, 72 h), 10.5 ± 4.24%; in data set [6], 7.65 ± 2.8%. Further, the “SI PC-3 (selectivity index versus NHDF)” value in data set [5] (72 h) was 1.4. Moreover, in data set [6], the “SI MCF-7 (selectivity index versus NHDF)” value stood at 9.0.

With `CCCCCN1C(=Cc2sc3ccccc3[n+]2C)Sc2ccccc21.[I-]` [Dye 1, 3-Methyl-2-((3-pentylbenzo[d]thiazol-2(3H)-ylidene)methyl)benzo[d]thiazol-3-ium iodide], the melting point – broadly, the temperature, or range, at which the solid turns liquid – lay in the range of 254 to 258 °C. In addition, the viability at 72 h, 10 µM in data set [1] (setting [7]) was determined as 0.84 ± 0.26%. Moreover, in data set [2] (setting [8]), the IC50 worked out at 550 nM. Further, the selectivity ratio at 72 h in data set [3] (setting [9]) is 1.5. Besides, in data set [4], the IC50 stood at 360 nM and the viability at 10 µM was determined as 1.37 ± 0.08%. In addition, the viability at 10 µM in data set [5] (Homo sapiens, 72 h) worked out at 0.56 ± 0.12%. Moreover, in data set [6], the viability at 10 µM turned out to be 0.87 ± 1.05%.

The compound `CCN1C(=Cc2n(CC)c3ccc([N+](=O)[O-])cc3[n+]2CC)Sc2ccccc21.[I-]` [Dye 9, 1,3-Diethyl-2-((3-ethylbenzo[d]thiazol-2(3H)-ylidene)methyl)-5-nitro-1H-benzo[d]imidazol-3-ium iodide] registered a melting point of 219 to 220 °C. Further, the viability at 72 h, 10 µM in data set [1] (setting [7]) turned out to be 38.2 ± 4.27%. For the same compound, the IC50 in data set [2] (setting [8]) was 24500 nM. In data set [3] (setting [9]), the selectivity ratio at 72 h came out at 17.5. In data set [4], the IC50 came to 1400 nM and the viability at 10 µM is 16.4 ± 0.81%. For the same compound, in data set [5] (Homo sapiens, 72 h), the viability at 10 µM came to 39.5 ± 7.97%. For the same compound, the viability at 10 µM in data set [6] stood at 52.9 ± 8.99%.

With `CN1C=C/C(=C/c2ccc3ccccc3[n+]2C)c2ccccc21` [Dye 12, 1-Methyl-4-((1-methylquinolin-2(1H)-ylidene)methyl)quinolin-1-ium 4-methylbenzenesulfonate], the viability at 72 h, 10 µM in data set [1] came out at 5.72 ± 1.91%. Moreover, the IC50 in data set [2] (72 h) was found to be 630 nM; in data set [4] it was 730 nM. Besides, the selectivity ratio at 72 h in data set [3] (Caco-2) turned out to be 0.9. Further, the viability at 10 µM was 10.7 ± 0.43% in data set [4]; 9.02 ± 3.29% in data set [5] (Homo sapiens, 72 h); 4.81 ± 1.56% in data set [6].

Regarding `CN1C(=Cc2sc3ccccc3[n+]2C)Oc2ccccc21.Cc1ccc(S(=O)(=O)[O-])cc1` [Dye 3, 3-Methyl-2-((3-methylbenzo[d]oxazol-2(3H)-ylidene)methyl)benzo[d]thiazol-3-ium 4-methylbenzenesulfonate], the viability at 72 h, 10 µM in data set [1] (setting [7]) was determined as 23.9 ± 3.05%. Further, the IC50 in data set [2] (setting [8]) worked out at 7530 nM; in data set [4] it was 90 nM; in data set [5] (setting [10]), 480 nM; in data set [5] (read-out: IC50 PC-3, PC-3, 72 h incubation, MTT), 430 nM. For the same compound, the selectivity ratio at 72 h in data set [3] (setting [9]) stood at 81.2. In addition, the viability at 10 µM was determined as 5.81 ± 0.8% in data set [4]; 1.81 ± 0.31% in data set [5] (Homo sapiens, 72 h); 3.04 ± 1.08% in data set [6]. Also, the “SI PC-3 (selectivity index versus NHDF)” value in data set [5] (72 h) is given as 17.2.

Turning to `CCN1C(=Cc2sc3ccc(NC(C)=O)cc3[n+]2CC)Sc2ccccc21.Cc1ccc(S(=O)(=O)[O-])cc1` [Dye 7, 5-Acetamido-3-ethyl-2-((3-ethylbenzo[d]thiazol-2(3H)-ylidene)methyl)benzo[d]thiazol-3-ium 4-methylbenzenesulfonate], the viability at 72 h, 10 µM in data set [1] (setting [7]) amounted to 29 ± 4.76%. The IC50 in data set [2] (setting [8]) came to 11600 nM; in data set [4] it was 140 nM; in data set [5] (setting [10]), 3560 nM; in data set [6] it was 380 nM. Besides, in data set [3] (setting [9]), the selectivity ratio at 72 h stood at 80.5. The viability at 10 µM in data set [4] was 9.89 ± 1.38%; in data set [5] (Homo sapiens, 72 h), 7.97 ± 4%; in data set [6] it was 11.8 ± 4.3%. The “SI PC-3 (selectivity index versus NHDF)” value in data set [5] (72 h) amounted to 3.3. Further, the “SI MCF-7 (selectivity index versus NHDF)” value in data set [6] came to 30.2.

On to `CCCCCCCCCCN1C(=Cc2sc3ccccc3[n+]2C)Sc2ccccc21.[I-]` [Dye 2, 3-Methyl-2-((3-decylbenzo[d]thiazol-2(3H)-ylidene)methyl)benzo[d]thiazol-3-ium iodide], for which the melting point fell in the range of 217 to 218 °C. For the same compound, the viability at 72 h, 10 µM in data set [1] (setting [7]) was 0.13 ± 0.43%. Also, in data set [2] (setting [8]), the IC50 worked out at 270 nM. Further, the selectivity ratio at 72 h in data set [3] (setting [9]) worked out at 1.1. For the same compound, in data set [4], the IC50 turned out to be 240 nM and the viability at 10 µM is 1.09 ± 0.47%. Moreover, in data set [5] (Homo sapiens, 72 h), the viability at 10 µM amounted to 0.62 ± 0.1%. Also, in data set [6], the viability at 10 µM is 0.62 ± 0.79%.

Compound `CN1C(=Cc2n(C)c3ccccc3[n+]2C)Sc2ccccc21.[I-]` [Dye 4, 1,3-Dimethyl-2-((3-methylbenzo[d]thiazol-2(3H)-ylidene)methyl)-1H-benzo[d]imidazol-3-ium iodide] displayed a melting point of 270 to 272 °C. Moreover, the viability at 72 h, 10 µM in data set [1] (setting [7]) turned out to be 23.1 ± 1.91%. In addition, the IC50 in data set [2] (setting [8]) was found to be 7930 nM. In addition, the selectivity ratio at 72 h in data set [3] (setting [9]) worked out at 33.6. In data set [4], the IC50 was 230 nM and the viability at 10 µM was found to be 7.15 ± 1.08%. The half-inhibitory concentration (IC50) in data set [5] (setting [10]) worked out at 2850 nM. In data set [5] (Homo sapiens, 72 h), the viability at 10 µM is 4.09 ± 0.61%. The “SI PC-3 (selectivity index versus NHDF)” value in data set [5] (72 h) is listed as 2.8. In addition, the viability at 10 µM in data set [6] was found to be 21.6 ± 1.33%.

As to `CCN1C(=Cc2sc3ccc(N)cc3[n+]2CC)Sc2ccccc21` [Dye 8, 5-Amino-3-ethyl-2-((3-ethylbenzo[d]thiazol-2(3H)-ylidene)methyl)benzo[d]thiazol-3-ium iodide], the viability at 72 h, 10 µM in data set [1] (setting [7]) came to 5.52 ± 0.69%. Also, the IC50 in data set [2] (setting [8]) amounted to 950 nM; in data set [4], 740 nM. Further, in data set [3] (setting [9]), the selectivity ratio at 72 h was determined as 1.3. In addition, the viability at 10 µM worked out at 5.21 ± 0.89% in data set [4]; 4.12 ± 1.71% in data set [5] (Homo sapiens, 72 h); 6.18 ± 1.48% in data set [6].

Regarding `CN1C(=Cc2sc3ccccc3[n+]2C)C=Cc2ccccc21` [Dye 6, 3-Methyl-2-((1-methylquinolin-2(1H)-ylidene)methyl)benzo[d]thiazol-3-ium 4-methylbenzenesulfonate], the viability at 72 h, 10 µM in data set [1] (setting [7]) stood at 4.28 ± 1.24%. Besides, the values for the IC50 in data set [2] (setting [8]) and in data set [4] were 790 nM and 270 nM, respectively. Moreover, in data set [3] (setting [9]), the selectivity ratio at 72 h amounted to 2.9. Besides, the viability at 10 µM in data set [4] came to 1.93 ± 0.78%; in data set [5] (Homo sapiens, 72 h), 4.98 ± 1.62%; in data set [6], 2.49 ± 0.32%.
